Literature values in patent publication US20070264289A1, “COMPOSITIONS AND METHODS OF ADMINISTERING DOXEPIN TO MUCOSAL TISSUE” (EOT Research Inc., priority 2003, published 2007).
Where a name gives a salt, the structure may show the parent alone.

How the values were obtained:
[1] = metabolite formed in the liver after systemic absorption of doxepin
[2] = systemic doxepin; drowsiness in a significant number of patients at this range

half-life [1] [h] | target plasma therapeutic range for treatment of depression [2] [ng/mL] | Compound
28 to 52 | – | CNCCC=C1c2ccccc2COc2ccccc21 [Desmethyldoxepin, desmethyldoxepin]
– | 30 to 150 | CN(C)CCC=C1c2ccccc2COc2ccccc21 [doxepin, N,N-dimethyldibenz(b,e)oxepin-propylamine hydrochloride]
